Legend:
[1] = tested on: HCV genotype 1a replicon cell line (APC89; Huh7.5 cell background); assay: HCV Genotype 1a Replicon Assay (NS3-specific protease activity readout); assay type: cell-based; conditions: Hepatitis C virus, 72 hour incubation, read-out: Genotype 1a (pEC50 class, HCV genotype 1a replicon assay) (converted)
Summary of the method: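 EC50 values came from a 4-parameter robust fit of fluorescence (ex 340, em 509 nm) produced by NS3-specific protease in lysates, assayed with 15 μM FRET substrate for 20 min at 37° C, after 48 or 72 hours of compound exposure (0.5% DMSO) of Huh7.5-derived APC89 genotype 1a replicon cells.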

[2] = tested on: HCV genotype 1b replicon cell line (APC144; Huh7 cell background); assay: HCV Genotype 1b Replicon Assay (Renilla luciferase readout); assay type: cell-based; conditions: Hepatitis C virus, Huh-7; read-out: Genotype 1b (pEC50 class, HCV genotype 1b replicon assay) (converted)
Summary of the method: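 Reported as pEC50 derived from a 4-parameter fit of Renilla luciferase activity against concentration. Replicon cells (APC144, Huh7 background) were exposed to compound for 48 h in G418-free medium with final 0.5% DMSO, after seeding at 10,000 cells/well and 4 h adherence.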

Row | SMILES | EC50 [1] | EC50 [2]
1 | CNC(=O)N1C[C@@H](C)N(c2ccc(C(=O)Nc3cc(OC(F)(F)F)c(-c4ccc(-c5c[nH]c([C@@H]6CCCN6C(=O)[C@@H](NC(=O)OC)C(C)C)n5)cc4)cc3Cl)cn2)C[C@@H]1C [Example 28-36] | < 0.1 nM | < 0.1 nM
2 | COC(=O)N[C@H](C(=O)N1CCC[C@H]1c1nc(-c2ccc(-c3cc(Cl)c(NC(=O)c4ccc(N5C[C@H](C)N(C(=O)c6c[nH]cn6)C[C@H]5C)nc4)cc3OC(F)(F)F)cc2)c[nH]1)C(C)C [Example 28-39] | < 0.1 nM | < 0.1 nM
3 | COC(=O)N[C@H](C(=O)N1CCC[C@H]1c1nc(-c2ccc(-c3ccc(NC(=O)c4ccc(N5CCN(C(=O)C6CC6)C[C@H]5C)nc4)cc3OC(F)(F)F)cc2)c[nH]1)C(C)C [Example 28] | 0.1 to 1 nM | < 0.1 nM
4 | CNC(=O)N1C[C@@H](C)N(c2ccc(C(=O)Nc3ccc(-c4ccc(-c5c[nH]c([C@@H]6CCCN6C(=O)[C@@H](NC(=O)OC)C(C)C)n5)cc4)c(OC(F)(F)F)c3)cn2)C[C@@H]1C [Example 29, ((S)-1-{(S)-2-[4-(4′-{[6-((2R,5S)-2,5-Dimethyl-4-methylcarbamoyl-piperazin-1-yl)-pyridine-3-carbonyl]-amino}-2′-trifluoromethoxy-biphenyl-4-yl)-1H-imidazol-2-yl]-pyrrolidine-1-carbonyl}-2-methyl-propyl)-carbamic acid methyl ester] | < 0.1 nM | < 0.1 nM
5 | COC(=O)N[C@H](C(=O)N1CCC[C@H]1c1nc(-c2ccc(-c3ccc(NC(=O)c4ccc(N5C[C@H](C)N(C(=O)C6CC6)C[C@H]5C)nc4)cc3OC(F)(F)F)cc2)c[nH]1)C(C)C [Example 30] | < 0.1 nM | < 0.1 nM
6 | COC(=O)N[C@H](C(=O)N1CCC[C@H]1c1nc(-c2ccc(-c3ccc(NC(=O)c4ccc(N5C[C@H](C)N(C(=O)c6c[nH]cn6)C[C@H]5C)nc4)cc3OC(F)(F)F)cc2)c[nH]1)C(C)C [Example 32] | < 0.1 nM | < 0.1 nM
7 | COC(=O)N[C@H](C(=O)N1CCC[C@H]1c1nc(-c2ccc(-c3ccc(NC(=O)c4ccc(N5CCN(C(=O)[C@H]6CC6(C)C)C[C@H]5C)nc4)cc3C(F)(F)F)cc2)c[nH]1)C(C)C [Example 34, [(S)-1-((S)-2-{5-[4′-({6-[(R)-4-((S)-2,2-Dimethyl-cyclopropanecarbonyl)-2-methyl-piperazin-1-yl]-pyridine-3-carbonyl}-amino)-2′-trifluoromethyl-biphenyl-4-yl]-1H-imidazol-2-yl}-pyrrolidine-1-carbonyl)-2-methyl-propyl]-carbamic acid methyl ester] | < 0.1 nM | < 0.1 nM
8 | COC(=O)N[C@H](C(=O)N1CCC[C@H]1c1nc(-c2ccc(-c3ccc(NC(=O)c4ccc(N5CCN(C(=O)C6CC6)C[C@H]5C)nc4)cc3C(F)(F)F)cc2)c[nH]1)C(C)C [Example 35] | 0.1 to 1 nM | < 0.1 nM
9 | CNC(=O)N1CCN(c2ccc(C(=O)Nc3ccc(-c4ccc(-c5c[nH]c([C@@H]6CCCN6C(=O)[C@@H](NC(=O)OC)C(C)C)n5)cc4)c(C(F)(F)F)c3)cn2)[C@H](C)C1 [Example 36] | 0.1 to 1 nM | < 0.1 nM
10 | COC(=O)N[C@H](C(=O)N1CCC[C@H]1c1nc(-c2ccc(-c3ccc(NC(=O)c4ccc(N5CCN(C(=O)c6c[nH]cn6)C[C@H]5C)nc4)cc3C(F)(F)F)cc2)c[nH]1)C(C)C [Example 37] | 0.1 to 1 nM | < 0.1 nM
11 | COC(=O)N[C@H](C(=O)N1CCC[C@H]1c1nc(-c2ccc(-c3ccc(NC(=O)c4ccc(N5C[C@H](C)N(C(=O)[C@H]6CC6(C)C)C[C@H]5C)nc4)cc3C)c(C)c2)c[nH]1)C(C)C [Example 39, [(S)-1-((S)-2-{4-[4′-({6-[(2R,5S)-4-((S)-2,2-Dimethyl-cyclopropanecarbonyl)-2,5-dimethyl-piperazin-1-yl]-pyridine-3-carbonyl}-amino)-2,2′-dimethyl-biphenyl-4-yl]-1H-imidazol-2-yl}-pyrrolidine-1-carbonyl)-2-methyl-propyl]-carbamic acid methyl ester] | < 0.1 nM | < 0.1 nM
12 | COC(=O)N[C@H](C(=O)N1CCC[C@H]1c1nc(-c2ccc(-c3ccc(NC(=O)c4ccc(N5C[C@H](C)N(C(=O)[C@]6(C)CCCN6C(=O)[C@@H](NC(=O)OC)C(C)C)C[C@H]5C)nc4)cc3C)c(C)c2)c[nH]1)C(C)C [Example 40] | 0.1 to 1 nM | < 0.1 nM
13 | COC(=O)N[C@H](C(=O)N1CCC[C@H]1c1nc(-c2ccc(-c3c(F)cc(NC(=O)c4ccc(N5CCN(C(=O)[C@H]6CC6(C)C)C[C@H]5C)nc4)cc3F)cc2)c[nH]1)C(C)C [Example 41, [(S)-1-((S)-2-{5-[4′-({6-[(R)-4-((S)-2,2-Dimethyl-cyclopropanecarbonyl)-2-methyl-piperazin-1-yl]-pyridine-3-carbonyl}-amino)-2′,6′-difluoro-biphenyl-4-yl]-1H-imidazol-2-yl}-pyrrolidine-1-carbonyl)-2-methyl-propyl]-carbamic acid methyl ester] | < 0.1 nM | < 0.1 nM
14 | COC(=O)N[C@H](C(=O)N1CCC[C@H]1c1nc(-c2ccc(-c3c(F)cc(NC(=O)c4ccc(N5CCN(C(=O)C6CC6)C[C@H]5C)nc4)cc3F)cc2)c[nH]1)C(C)C [Example 42] | 0.1 to 1 nM | < 0.1 nM
15 | CNC(=O)N1CCN(c2ccc(C(=O)Nc3cc(F)c(-c4ccc(-c5c[nH]c([C@@H]6CCCN6C(=O)[C@@H](NC(=O)OC)C(C)C)n5)cc4)c(F)c3)cn2)[C@H](C)C1 [Example 43] | 0.1 to 1 nM | < 0.1 nM
16 | COC(=O)N[C@H](C(=O)N1CCC[C@H]1c1nc(-c2ccc(-c3c(F)cc(NC(=O)c4ccc(N5CCN(C(=O)c6c[nH]cn6)C[C@H]5C)nc4)cc3F)cc2)c[nH]1)C(C)C [Example 44] | 0.1 to 1 nM | < 0.1 nM
17 | COC(=O)N[C@H](C(=O)N1CCC[C@H]1c1nc(-c2ccc(-c3ccc(NC(=O)c4ccc(N5CCN(C(=O)[C@H]6CC6(C)C)C[C@H]5C)nc4)cc3F)cc2)c[nH]1)C(C)C [Example 45, [(S)-1-((S)-2-{5-[4′-({6-[(R)-4-((S)-2,2-Dimethyl-cyclopropanecarbonyl)-2-methyl-piperazin-1-yl]-pyridine-3-carbonyl}-amino)-2′-fluoro-biphenyl-4-yl]-1H-imidazol-2-yl}-pyrrolidine-1-carbonyl)-2-methyl-propyl]-carbamic acid methyl ester] | < 0.1 nM | < 0.1 nM
18 | COC(=O)N[C@H](C(=O)N1CCC[C@H]1c1nc(-c2ccc(-c3ccc(NC(=O)c4ccc(N5CCN(C(=O)C6CC6)C[C@H]5C)nc4)cc3F)cc2)c[nH]1)C(C)C [Example 46] | 0.1 to 1 nM | < 0.1 nM
19 | CNC(=O)N1CCN(c2ccc(C(=O)Nc3ccc(-c4ccc(-c5c[nH]c([C@@H]6CCCN6C(=O)[C@@H](NC(=O)OC)C(C)C)n5)cc4)c(F)c3)cn2)[C@H](C)C1 [Example 47] | 0.1 to 1 nM | < 0.1 nM
20 | COC(=O)N[C@H](C(=O)N1CCC[C@H]1c1nc(-c2ccc(-c3ccc(NC(=O)c4ccc(N5CCN(C(=O)c6c[nH]cn6)C[C@H]5C)nc4)cc3F)cc2)c[nH]1)C(C)C [Example 48] | 0.1 to 1 nM | < 0.1 nM
21 | COC(=O)N[C@H](C(=O)N1CCC[C@H]1c1nc(-c2ccc(-c3ccc(NC(=O)c4ccc(N5CCN(C(=O)[C@H]6CC6(C)C)C[C@H]5C)nc4)cc3Cl)cc2)c[nH]1)C(C)C [Example 49, [(S)-1-((S)-2-{4-[2′-Chloro-4′-({6-[(R)-4-((S)-2,2-dimethyl-cyclopropanecarbonyl)-2-methyl-piperazin-1-yl]-pyridine-3-carbonyl}-amino)-biphenyl-4-yl]-1H-imidazol-2-yl}-pyrrolidine-1-carbonyl)-2-methyl-propyl]-carbamic acid methyl ester] | < 0.1 nM | < 0.1 nM
22 | COC(=O)N[C@H](C(=O)N1CCC[C@H]1c1nc(-c2ccc(-c3ccc(NC(=O)c4ccc(N5CCN(C(=O)[C@H]6CC6(C)C)C[C@H]5C)nc4)cc3F)c(F)c2)c[nH]1)C(C)C [Example 50, [(S)-1-((S)-2-{4-[4′-({6-[(R)-4-((S)-2,2-dimethyl-cyclopropanecarbonyl)-2-methyl-piperazin-1-yl]-pyridine-3-carbonyl}-amino)-2,2′-difluoro-biphenyl-4-yl]-1H-imidazol-2-yl}-pyrrolidine-1-carbonyl)-2-methyl-propyl]-carbamicacid methyl ester] | < 0.1 nM | < 0.1 nM
23 | COC(=O)N[C@H](C(=O)N1CCC[C@H]1c1nc(-c2ccc(-c3cc(F)c(NC(=O)c4ccc(N5CCN(C(=O)[C@H]6CC6(C)C)C[C@H]5C)nc4)cc3C(F)(F)F)cc2)c[nH]1)C(C)C [Example 51, [(S)-1-((S)-2-{4-[4′-({6-[(R)-4-((S)-2,2-Dimethyl-cyclopropanecarbonyl)-2-methyl-piperazin-1-yl]-pyridine-3-carbonyl}-amino)-5′-fluoro-2′-trifluoromethyl-biphenyl-4-yl]-1H-imidazol-2-yl}-pyrrolidine-1-carbonyl)-2-methyl-propyl]carbamic acid methyl ester] | < 0.1 nM | < 0.1 nM
24 | COC(=O)N[C@H](C(=O)N1CCC[C@H]1c1nc(-c2ccc(-c3cc(F)c(NC(=O)c4ccc(N5CCN(C(=O)[C@]6(C)CCCN6C(=O)[C@@H](NC(=O)OC)C(C)C)C[C@H]5C)nc4)cc3C(F)(F)F)cc2)c[nH]1)C(C)C [Example 52] | < 0.1 nM | < 0.1 nM

Source: US8921372B2, “Inhibitors of hepatitis C virus” (Theravance Biopharma R&D IP, LLC, priority 2010, dated 2014)
